# Test results from ChEMBL document CHEMBL5113434, “Discovery of novel Thieno[2,3-d]imidazole derivatives as agonists of human STING for antitumor immunotherapy using systemic administration” (Eur J Med Chem, 2022).
# Active and inactive are the calls of the source. The rule behind the calls is not given here.
# Legend:
# [1] = target: T1, Stimulator of interferon genes protein (Homo sapiens, UniProt Q86WV6); assay: Agonist activity at STING in human THP1-Dual cells assessed as fold change in ISG activation at 10 uM incubated for 24 hrs by Quanti-luc reagent based assay relative to control; assay type: cell-based; conditions: filed as agonist
# Target sequence in this assay (Q86WV6 whole entry): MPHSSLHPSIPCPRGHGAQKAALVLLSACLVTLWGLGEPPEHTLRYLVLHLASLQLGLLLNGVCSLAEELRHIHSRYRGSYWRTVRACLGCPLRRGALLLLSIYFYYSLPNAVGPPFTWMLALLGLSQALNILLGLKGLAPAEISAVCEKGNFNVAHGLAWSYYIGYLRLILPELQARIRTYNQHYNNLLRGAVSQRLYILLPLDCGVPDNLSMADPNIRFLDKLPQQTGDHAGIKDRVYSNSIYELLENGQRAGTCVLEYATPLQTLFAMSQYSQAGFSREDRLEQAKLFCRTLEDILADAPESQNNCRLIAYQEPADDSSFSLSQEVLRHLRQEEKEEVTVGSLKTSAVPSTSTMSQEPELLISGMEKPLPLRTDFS
# [2] = target: T2, Stimulator of interferon genes protein (Mus musculus) (UniProt Q3TBT3); assay: Agonist activity at STING in mouse RAW-Lucia ISG cells assessed as fold change in ISG activation at 50 uM incubated for 24 hrs by Quanti-luc reagent based assay relative to control; assay type: cell-based; conditions: filed as agonist
# T2 sequence (whole entry): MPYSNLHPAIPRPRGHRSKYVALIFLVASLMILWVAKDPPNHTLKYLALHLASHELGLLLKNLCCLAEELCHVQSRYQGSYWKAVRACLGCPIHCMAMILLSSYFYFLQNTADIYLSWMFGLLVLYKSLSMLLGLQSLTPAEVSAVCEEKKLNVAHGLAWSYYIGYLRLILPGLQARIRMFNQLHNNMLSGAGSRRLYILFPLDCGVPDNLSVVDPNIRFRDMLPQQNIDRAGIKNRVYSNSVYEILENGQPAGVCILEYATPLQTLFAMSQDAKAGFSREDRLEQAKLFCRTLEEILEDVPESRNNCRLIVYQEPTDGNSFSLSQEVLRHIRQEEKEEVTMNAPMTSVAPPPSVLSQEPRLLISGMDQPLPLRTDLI
# [3] = Observed AUC infinity in BALB/c mouse at 1 mg/kg, iv measured up to 24 hrs by UPLC-MS/MS analysis; assay type: ADME, organism-based; design: dose 1 mg/kg, time < 24 hrs, route iv; conditions: in vivo
# [4] = Half life in BALB/c mouse at 1 mg/kg, iv measured up to 24 hrs by UPLC-MS/MS analysis; assay type: ADME, organism-based; conditions: in vivo
# [5] = Observed volume of distribution at steady state in BALB/c mouse at 1 mg/kg, iv measured up to 24 hrs by UPLC-MS/MS analysis; assay type: ADME, organism-based; conditions: in vivo, read-out: Vdss
# [6] = Observed clearance in BALB/c mouse at 1 mg/kg, iv measured up to 24 hrs by UPLC-MS/MS analysis; assay type: ADME, organism-based; conditions: in vivo
# [7] = AUClast in BALB/c mouse at 1 mg/kg, iv measured up to 24 hrs by UPLC-MS/MS analysis; assay type: ADME, organism-based; design: time < 24 hrs, dose 1 mg/kg, route iv; conditions: in vivo
# [8] = target: T3, Stimulator of interferon genes protein (Mus musculus, UniProt Q3TBT3); assay: Agonist activity at STING in mouse RAW-Lucia ISG cells assessed as ISG activation incubated for 24 hrs by Quanti-luc reagent based assay; assay type: cell-based
# T3 sequence (Q3TBT3 whole entry): T2 sequence (whole entry)
# [9] = target: T1, Stimulator of interferon genes protein; assay: Agonist activity at STING in human THP1-Dual cells assessed as ISG activation incubated for 24 hrs by Quanti-luc reagent based assay; assay type: cell-based
# Target sequence in this assay (Q86WV6 whole entry): as the sequence (Q86WV6 whole entry) above
# [10] = target: T1, Stimulator of interferon genes protein; assay: Agonist activity at wild type human STING in HEK cells; assay type: cell-based
# Target sequence in this assay (Q86WV6 whole entry): as the sequence (Q86WV6 whole entry) above
# [11] = system: Stimulator of interferon genes protein (Homo sapiens), Q86WV6 [UNDEFINED MUTATION]; assay: Binding affinity to human STING R232 mutant assessed as thermal stability by measuring change in melting temperature by differential scanning fluorimetry; conditions: filed as agonist
# Sequence of Stimulator of interferon genes protein (Homo sapiens), Q86WV6 [UNDEFINED MUTATION] (Q86WV6 whole entry, looked up, stated change not applied): as the sequence (Q86WV6 whole entry) above
# [12] = system: Stimulator of interferon genes protein (Homo sapiens), Q86WV6 [R293Q]; assay: Binding affinity to human STING 293Q mutant assessed as thermal stability by measuring change in melting temperature by differential scanning fluorimetry; conditions: filed as agonist
# Sequence of Stimulator of interferon genes protein (Homo sapiens), Q86WV6 [R293Q] (Q86WV6 whole entry R293Q): as the sequence (Q86WV6 whole entry) above, with R293Q counted along it
# [13] = target: T1, Stimulator of interferon genes protein; assay: Activation of STING pathway in human 293T-Dual hSTING-H232 cells assessed as increase in ISG expression level measured for 24 hrs by SEAP reporter based Quanti-luc assay; assay type: cell-based; conditions: filed as activator, dose 0.01-1 µM, DDE = dose-dependent effect
# Target sequence in this assay (Q86WV6 whole entry): as the sequence (Q86WV6 whole entry) above
# [14] = target: T1, Stimulator of interferon genes protein; assay: Binding affinity to His6-tagged human wild type STING R232 variant by homogeneous time-resolved fluorescence assay
# Target sequence in this assay (Q86WV6 whole entry, looked up, change not shown): as the sequence (Q86WV6 whole entry) above
# [15] = Toxicity in BALB/c mouse xenografted with 4T1 cells assessed as body weight loss at 10 to 20 mg/kg, iv administered on day 1,4,7 and measured for 20 days; assay type: organism-based; conditions: in vivo, 480 h, dose 10-20 mg/kg, time 20 day
# [16] = target: T1, Stimulator of interferon genes protein; assay: Activation of STING pathway in human 293T-Dual hSTING-R232 cells assessed as increase in ISG expression level measured for 24 hrs by SEAP reporter based Quanti-luc assay; assay type: cell-based; conditions: filed as activator, dose 0.01-1 µM, DDE = dose-dependent effect
# Target sequence in this assay (Q86WV6 whole entry): as above
# [17] = target: T1, Stimulator of interferon genes protein; assay: Activation of STING pathway in human THP1-Dual cells assessed as increase in IFNbeta expression level at 0.01 to 1 uM measured for 24 hrs by chemiluminescence based analysis; assay type: cell-based; conditions: filed as activator, dose 0.01-1 µM
# Target sequence in this assay (Q86WV6 whole entry): as above
# [18] = system: CT26; assay: Antitumor immunity against mouse CT26 cells implanted in BALB/c mouse assessed as increase in IP-10 level in plasma at 5 mg/kg, IT administered on day 1,4,7 for 20 days and measured 6 hrs post last dose; assay type: functional, organism-based; conditions: time 20.0 day
# [19] = target: T2, Stimulator of interferon genes protein (Mus musculus); assay: Activation of STING pathway in mouse RAW-Lucia ISG cells assessed as increase in ISG expression level at 12.5 to 50 uM measured for 24 hrs by Quanti-luc reagent based assay; assay type: cell-based; conditions: filed as activator, dose 12.5-50 µM
# [20] = system: 4T1; assay: Antitumour activity against mouse 4T1 cells implanted in BALB/c mouse assessed as tumor growth inhibition at 10 mg/kg, iv administered on day 1,4,7 and measured for 20 days relative to control; assay type: functional; conditions: 4T1, 480 h, time 20 day, read-out: TGI
# [21] = system: CT26; assay: Antitumor immunity against mouse CT26 cells implanted in BALB/c mouse assessed as increase in IP-10 level in plasma at 10 mg/kg, iv administered on day 1,4,7 for 20 days and measured 6 hrs post last dose; assay type: functional, organism-based; conditions: time 20.0 day
# [22] = target: T1, Stimulator of interferon genes protein; assay: Agonist activity at human STING in human THP1-Dual cells assessed as activation of ISG signaling pathway measured after 24 hrs by Quanti-luc reagent based assay; assay type: cell-based; conditions: filed as agonist, dose 0.0001-1 µM, DDE = dose-dependent effect
# [23] = system: 4T1; assay: Antitumour activity against mouse 4T1 cells implanted in BALB/c mouse assessed as tumor growth inhibition at 20 mg/kg, iv administered on day 1,4,7 and measured for 20 days relative to control; assay type: functional; conditions: 4T1, 480 h, time 20 day, read-out: TGI
# [24] = system: CT26; assay: Antitumour activity against mouse CT26 cells implanted in BALB/c mouse assessed as suppression of tumor growth at 10 mg/kg, iv administered on day 1,4,7 and measured for 20 days; assay type: functional, organism-based; conditions: time 20.0 day
# [25] = target: T1, Stimulator of interferon genes protein; assay: Agonist activity at human STING in human THP1-Dual cells assessed as activation of NF-kappB signaling pathway measured after 24 hrs by Quanti-luc reagent based assay; assay type: cell-based; conditions: filed as agonist, dose 0.0001-1 µM, DDE = dose-dependent effect
# [26] = organism: Homo sapiens; assay: Binding affinity to human STING H232 mutant assessed as thermal stability by measuring change in melting temperature by differential scanning fluorimetry; conditions: filed as agonist
# [27] = target: T1, Stimulator of interferon genes protein; assay: Activation of STING pathway in human THP1-Dual cells assessed as increase in IRF3 phosphorylation at 0.01 to 1 uM measured for 4 hrs by immunoblotting analysis; assay type: cell-based; conditions: filed as activator, dose 0.01-1 µM
# [28] = target: T1, Stimulator of interferon genes protein; assay: Activation of STING pathway in human THP1-Dual cells assessed as increase in TBK1 phosphorylation at 0.01 to 1 uM measured for 4 hrs immunoblotting analysis; assay type: cell-based; conditions: filed as activator, dose 0.01-1 µM
# [29] = target: T1, Stimulator of interferon genes protein; assay: Activation of STING pathway in human 293T-Dual hSTING-R232 cells assessed as increase in IFNbeta expression level measured for 24 hrs by SEAP reporter based Quanti-luc assay; assay type: cell-based; conditions: filed as activator, dose 0.01-1 µM, DDE = dose-dependent effect
# [30] = target: T1, Stimulator of interferon genes protein; assay: Activation of STING pathway in human THP1-Dual cells assessed as increase in IP-10 expression level at 0.01 to 1 uM measured for 24 hrs by chemiluminescence based analysis; assay type: cell-based; conditions: filed as activator, dose 0.01-1 µM
# [31] = target: T1, Stimulator of interferon genes protein; assay: Activation of STING pathway in human 293T-Dual hSTING-H232 cells assessed as increase in IFNbeta expression level measured for 24 hrs by SEAP reporter based Quanti-luc assay; assay type: cell-based; conditions: filed as activator, dose 0.01-1 µM, DDE = dose-dependent effect
# [32] = system: CT26; assay: Antitumor immunity against mouse CT26 cells implanted in BALB/c mouse assessed as increase in IFN-beta level in plasma at 10 mg/kg, iv administered on day 1,4,7 for 20 days and measured 6 hrs post last dose; assay type: functional, organism-based; conditions: time 20.0 day
# [33] = organism: Mus musculus; assay: Binding affinity to mouse STING R231 mutant assessed as thermal stability by measuring change in melting temperature by differential scanning fluorimetry; conditions: filed as agonist
# [34] = system: CT26; assay: Antitumor immunity against mouse CT26 cells implanted in BALB/c mouse assessed as increase in IFN-beta level in plasma at 5 mg/kg, IT administered on day 1,4,7 for 20 days and measured 6 hrs post last dose; assay type: functional, organism-based; conditions: time 20.0 day
# [35] = system: Stimulator of interferon genes protein (Homo sapiens), Q86WV6 [G230A,R293Q]; assay: Binding affinity to human STING AQ mutant assessed as thermal stability by measuring change in melting temperature by differential scanning fluorimetry; conditions: filed as agonist
# Sequence of Stimulator of interferon genes protein (Homo sapiens), Q86WV6 [G230A,R293Q] (Q86WV6 whole entry G230A/R293Q): as the sequence (Q86WV6 whole entry) above, with G230A, R293Q counted along it
# [36] = system: CT26; assay: Antitumour activity against mouse CT26 cells implanted in BALB/c mouse assessed as suppression of tumor growth at 5 mg/kg, IT administered on day 1,4,7 and measured for 20 days; assay type: functional, organism-based; conditions: time 20.0 day
# [37] = target: T1, Stimulator of interferon genes protein; assay: Agonist activity at STING (unknown origin)
smiles,measurement,setting,value
CCn1nc(C)cc1C(=O)Nc1nc2cc(NC(C)=O)ccc2n1CCCCn1c(NC(=O)c2cc(C)nn2CC)nc2cc(C(N)=O)cc(OCCCN3CCOCC3)c21,fold change (FC),[1],2.32
same,fold change (FC),[2],1.18
CCn1nc(C)cc1C(=O)Nc1nc2cc(C(N)=O)sc2n1CCCCn1c(NC(=O)c2cc(C)nn2CC)nc2cc(C(N)=O)cc(OCCCN3CCOCC3)c21,fold change (FC),[1],8.42
same,fold change (FC),[2],0.64
CCn1nc(C)cc1C(=O)Nc1nc2cc(C(N)=O)cc(OC)c2n1C/C=C/Cn1c(NC(=O)c2cc(C)nn2CC)nc2cc(C(N)=O)cc(OCCCN3CCOCC3)c21,AUC(0-inf),[3],666 ng·h/mL
same,half-life,[4],1.14 h
same,Vd,[5],0.965 L/kg
same,clearance,[6],26 mL/min/kg
same,AUC(0-t) at 24 h,[7],657 ng·h/mL
CCn1nc(C)cc1C(=O)Nc1nc2cc(C(N)=O)sc2n1C/C=C/Cn1c(NC(=O)c2cc(C)nn2CC)nc2cc(C(N)=O)cc(OC(C)C)c21,EC50,[8],63700 nM
same,EC50,[9],5820 nM
same,fold change (FC),[1],60.4
same,fold change (FC),[2],13.5
O=C(NCc1ccco1)c1ccc2c(c1)N(Cc1c(F)cccc1Cl)C(=O)CS2,EC50,[10],2490 nM
CCn1nc(C)cc1C(=O)Nc1nc2cc(C(N)=O)sc2n1C/C=C/Cn1c(NC(=O)c2cc(C)nn2CC)nc2cc(C(N)=O)cc(OCCCN3CCOCC3)c21,ΔTm,[11],6.6 °C
same,ΔTm,[12],11.1 °C
same,Activity,[13],Dde
same,AUC(0-inf),[3],711 ng·h/mL
same,IC50,[14],0.6 nM
same,Activity,[15],Non-Toxic
same,EC50,[8],32800 nM
same,Activity,[16],Dde
same,half-life,[4],1.62 h
same,Vd,[5],1.52 L/kg
same,Activity,[17],Active
same,Activity,[18],Active
same,Activity,[19],Active
same,inhibition in vivo at 10 mg/kg,[20],61%
same,Activity,[21],Active
same,Activity,[22],Dde
same,inhibition in vivo at 20 mg/kg,[23],74%
same,Activity,[24],Active
same,EC50,[9],1.2 nM
same,Activity,[25],Dde
same,ΔTm,[26],12.8 °C
same,Activity,[27],Active
same,Activity,[28],Active
same,Activity,[29],Dde
same,clearance,[6],26.3 mL/min/kg
same,Activity,[30],Active
same,Activity,[31],Dde
same,fold change (FC),[1],145
same,fold change (FC),[2],20.7
same,Activity,[32],Active
same,ΔTm,[33],13.3 °C
same,Activity,[34],Active
same,AUC(0-t) at 24 h,[7],701 ng·h/mL
same,ΔTm,[35],12.4 °C
same,Activity,[36],Active
O=C(c1ccc([N+](=O)[O-])cc1)N1CCc2cc(S(=O)(=O)N3C[C@@H](c4ccccc4)NC3=O)ccc21,EC50,[37],180 nM
Nc1ncnc2c1ncn2[C@@H]1O[C@@H]2COP(=O)(O)O[C@H]3[C@@H](O)[C@H](n4cnc5c(N)ncnc54)O[C@@H]3COP(=O)(O)O[C@H]2[C@H]1O,EC50,[37],51.3 nM
